What was measured:
[1] = DAP PCDS direct diffusion (SPME-GC/MS); format: physicochemical; conditions: DAP/PCDS diffuser, 40 mL, 6 capillaries
Description: Three diffusers, each containing 40 mL of solution and 6 capillaries, were prepared and diffused. The first points were measured at T=1d, T=2, and T=3d, then every Monday, Wednesday and Friday of each study week until the diffusers no longer contained any solution. To measure the pheromone released into the air at each study time, the diffuser is first weighed (with the sticks) to measure mass loss, then placed in an enclosed area (in this case, an upside-down aquarium) containing a SPME fiber, as shown in FIG. 24.
The fiber is left to diffuse above the diffuser for 2 hours (a time determined in a previous method development as the optimum time for molecules to adsorb to the phase), then analyzed using the gas chromatography/mass spectrometry (GC/MS) technique.
Three diffusers were studied for greater accuracy. The chromatograms obtained are reprocessed using GC/MS Solution software.
For each chromatographic peak, the area is recorded using GC/MS Solution software, then entered into an Excel spreadsheet. Diffusion curves giving the area of the chromatographic peak corresponding to each active ingredient as a function of time are then plotted.
Analyses were carried out by gas chromatography/mass spectrometry (GC/MS). The instrument was a Shimadzu GCMS QP2010SE® equipped with an AOC 6000® autosampler. Separation was carried out on a ZB-FFAP® column (30 m×0.25 mm×0.25 μm, stationary phase: nitroterephthalic acid-modified polyethylene glycol) supplied by Phenomenex. The furnace temperature was initially set at 80° C. for 1 minute, then increased at 10° C./min to 240° C. and maintained at this temperature for 2 minutes. The carrier gas was helium at a flow rate of 1 mL/min. Analysis time is 19 minutes.
The injector is a split/splitless injector used in split mode (temperature: 250° C., split: 50:1). The SPME fiber was injected directly into the injector and left to desorb for 15 minutes.
The separated molecules were detected using a mass spectrometer equipped with an electron impact source (temperature: 200° C.). The analyzer is a simple quadrupole. The interface temperature is 250° C. Data were acquired in FASST mode (Fast automated SCAN/SIM type), i.e. part of the analysis was performed by scanning all ions (SCAN) and part by selecting specific ions (SIM). Target molecules were thus analyzed using ion selection.

[2] = Ratios of molecules diffused through the sticks over time; format: physicochemical
Description: Furthermore, as small molecules diffuse more, it happens that they lose intensity over the course of the study, so the ratios are different 24 hours after immersing the sticks in the liquid and 21 days later. Here are the ratios for each pheromone studied at the start of the study and at the end.

[3] = DAP, 24 h after immersion of sticks
[4] = DAP, 21 days after immersion of sticks (empty tank)

SMILES: CCCCCCCCCCCCCCC(=O)OC [methyl pentadecanoate]
- direct diffusion over time [1]: slight increase over time
- ratio of molecules diffused through the sticks [2, 3]: 7 % (w/w)
- ratio of molecules diffused through the sticks [2, 4]: 9 % (w/w)

SMILES: CCCCCCCCCCCCCCCCCC(=O)OC [methyl stearate, methyl octadecanoate]
- direct diffusion over time [1]: diffuses the least
- ratio of molecules diffused through the sticks [2, 3]: 0.5 % (w/w)
- ratio of molecules diffused through the sticks [2, 4]: 1 % (w/w)
- ratio of molecules diffused through the sticks ([2]; F3P, 24 h after immersion of the sticks): 0.1 % (w/w)
- ratio of molecules diffused through the sticks ([2]; F3P, 21 days after immersion of sticks (empty tank)): 0.1 % (w/w)
